Source: patent US20100267743A1, “3-(PHENOXYPYRROLIDIN-3-YL-METHYL)HETEROARYL, 3-(PHENYLPYRROLIDIN-3-YLMETHOXY)HETEROARYL, AND 3-(HETEROARYLPYRROLIDIN-3-YLMETHOXY)HETEROARYL COMPOUNDS” (priority 2009, published 2010)

Columns and labels:
SERT = SERT (Homo sapiens, UniProt P31645); assay: hSERT radioligand binding assay (3H-citalopram); parameters: expressed in transfected cells; host or cells: HEK-293; conditions: hSERT membranes (HEK-293), 1.0 nM 3H-citalopram; for Ki: read-out: SERT pKi (converted)
Procedure: (§1) Membrane radioligand binding assays were used to measure inhibition of labeled ligand (^3H-citalopram or ^3H-nisoxetine or ^3H-WIN35428) binding to membranes prepared from cells expressing the respective human recombinant transporter (hSERT or hNET or hDAT) in order to determine the pKi values of test compounds at the transporters.
(§2) Recombinant human embryonic kidney (HEK-293) derived cell lines stably transfected with hSERT or hNET, respectively, were grown in DMEM medium supplemented with 10% dialyzed FBS (for hSERT) or FBS (for hNET), 100 μg/ml penicillin, 100 μg/ml streptomycin, 2 mM L-glutamine and 250 μg/ml of the aminoglycoside antibiotic G418, in a 5% CO2 humidified incubator at 37° C. When cultures reached 80% confluence, the cells were washed thoroughly in PBS (without […] and Mg^2+) and lifted with 5 mM EDTA in PBS. Cells were pelleted by centrifugation, resuspended in lysis buffer (10 mM Tris-HCl, pH7.5 containing 1 mM EDTA), homogenized, pelleted by centrifugation, then resuspended in 50 mM Tris-HCl, pH 7.5 and 10% sucrose at 4° C. Protein concentration of the membrane suspension was determined using a Bio-Rad Bradford Protein Assay kit. Membranes were snap frozen and stored at −80° C. Chinese hamster ovary membranes expressing hDAT (CHO-DAT) were purchased from PerkinElmer and stored at −80° C.
(§3) Binding assays were performed in a 96-well assay plate in a total volume of 200 μl assay buffer (50 mM Tris-HCl, 120 mM NaCl, 5 mM KCl, pH 7.4) with 0.5, 1, and 3 μg membrane protein, for SERT, NET and DAT, respectively.
(§4) Stock solutions (10 mM in DMSO) of test compound were prepared and serial dilutions made using Dilution Buffer (50 mM Tris-HCl, 120 mM NaCl, 5 mM KCl, pH 7.4, 0.1% BSA, 400 μM ascorbic acid).
(§5) Following a 60 minute incubation at 22° C. (or a period sufficient to reach equilibrium), the membranes were harvested by rapid filtration over a 96-well UniFilter GF/B plate, pretreated with 0.3% polyethyleneimine, and washed 6 times with 300 μl wash buffer (50 mM Tris-HCl, 0.9% NaCl, pH 7.5 at 4° C.). Plates were dried overnight at room temperature, ˜45 μl of MicroScint™-20 (Perkin Elmer) added and bound radioactivity quantitated via liquid scintillation spectroscopy. Inhibition curves and saturation isotherms were analyzed using GraphPad Prism Software package (GraphPad Software, Inc., San Diego, Calif.). IC50 values were generated from concentration response curves using the Sigmoidal Dose Response (variable slope) algorithm in Prism GraphPad. Kd and Bmax values for the radioligand were generated from saturation isotherms using the Saturation Binding Global Fit algorithm in Prism GraphPad. pKi (negative decadic logarithm of Ki) values for test compounds were calculated from the best-fit IC50 values, and the Kd value of the radioligand, using the Cheng-Prusoff equation (Cheng & Prusoff (1973) Biochem. Pharmacol. 22(23):3099-3108): Ki=IC50/(1+[L]/Kd), where [L]=concentration radioligand.

NET = NET (Homo sapiens, UniProt P23975); assay: hNET radioligand binding assay (3H-nisoxetine); parameters: expressed in transfected cells; host or cells: HEK-293; conditions: hNET membranes (HEK-293), 1.0 nM 3H-nisoxetine; for Ki: read-out: NET pKi (converted)
Procedure: as §1, §2, §3, §4, §5

NET, sequence (P23975 whole entry): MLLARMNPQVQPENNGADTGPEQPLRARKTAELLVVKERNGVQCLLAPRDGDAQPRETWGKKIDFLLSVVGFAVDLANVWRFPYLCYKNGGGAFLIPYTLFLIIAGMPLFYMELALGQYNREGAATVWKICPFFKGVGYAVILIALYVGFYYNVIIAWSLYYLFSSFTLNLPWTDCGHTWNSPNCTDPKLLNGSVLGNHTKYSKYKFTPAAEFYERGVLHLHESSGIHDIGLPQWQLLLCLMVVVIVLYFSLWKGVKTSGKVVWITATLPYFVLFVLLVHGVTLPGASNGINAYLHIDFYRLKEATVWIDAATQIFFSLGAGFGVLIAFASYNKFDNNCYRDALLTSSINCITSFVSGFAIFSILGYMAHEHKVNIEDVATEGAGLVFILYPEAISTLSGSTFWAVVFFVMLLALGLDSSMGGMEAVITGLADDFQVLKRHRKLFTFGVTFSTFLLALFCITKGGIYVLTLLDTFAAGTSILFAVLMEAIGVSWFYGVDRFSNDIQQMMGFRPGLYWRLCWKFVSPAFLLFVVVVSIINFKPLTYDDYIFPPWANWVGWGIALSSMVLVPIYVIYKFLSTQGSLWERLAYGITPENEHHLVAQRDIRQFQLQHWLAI
SERT, sequence (P31645 whole entry): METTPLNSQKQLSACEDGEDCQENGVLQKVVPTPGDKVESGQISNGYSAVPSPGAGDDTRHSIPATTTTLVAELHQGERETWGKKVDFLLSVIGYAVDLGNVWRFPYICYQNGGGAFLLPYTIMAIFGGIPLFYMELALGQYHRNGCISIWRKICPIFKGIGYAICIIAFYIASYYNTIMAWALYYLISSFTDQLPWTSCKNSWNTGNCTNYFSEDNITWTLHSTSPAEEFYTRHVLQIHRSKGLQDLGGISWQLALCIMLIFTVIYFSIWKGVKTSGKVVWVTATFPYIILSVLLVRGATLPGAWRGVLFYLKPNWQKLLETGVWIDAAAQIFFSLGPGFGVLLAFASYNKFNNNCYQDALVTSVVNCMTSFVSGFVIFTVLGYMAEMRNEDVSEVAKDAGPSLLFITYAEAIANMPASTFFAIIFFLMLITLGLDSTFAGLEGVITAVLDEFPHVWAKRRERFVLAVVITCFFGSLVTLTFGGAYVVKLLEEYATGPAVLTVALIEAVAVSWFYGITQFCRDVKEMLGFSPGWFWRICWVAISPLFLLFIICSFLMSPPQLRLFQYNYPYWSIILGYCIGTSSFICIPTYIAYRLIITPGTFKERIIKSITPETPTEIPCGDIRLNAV

Row | Ki (SERT) [µM] | Ki (NET) [µM] | Compound | SERT pKi (SERT) | NET pKi (NET)
1 | ≤ 10 | ≤ 0.1 | FC(F)(F)c1ccccc1O[C@@H](c1ncco1)[C@H]1CCNC1 [6-17] | – | –
2 | ≤ 0.1 | ≤ 0.1 | Clc1cccc(Cl)c1O[C@H](c1cccnc1)[C@H]1CCNC1 [Example 2-73, 3-[(S)-(2,6-Dichlorophenoxy)-(S)-pyrrolidin-3-yl-methyl]pyridine] | – | –
3 | ≤ 0.1 | ≤ 10 | FC(F)(F)Oc1cccc(C(Oc2cccc3ccccc23)C2CCNC2)c1 (stereo not drawn) [21-7] | – | –
4 | ≤ 0.1 | ≤ 10 | Cc1cc(Cl)ccc1O[C@H](c1ncco1)[C@H]1CCNC1 [6-35] | – | –
5 | – | – | Cc1cccc(O[C@@H](c2ccccc2)[C@H]2CCNC2)n1.O=C(O)C(F)(F)F [14-11] | ≧5.0 | ≧5.0
6 | ≤ 0.1 | ≤ 0.1 | Fc1cc(F)c(Cl)c(OC(c2nccs2)C2CCNC2)c1Cl [Example 5-9, 2-[((S)-(2,6-Dichloro-3,5-difluorophenoxy)-((S)-pyrrolidin-3-yl-methyl]thiazole] | – | –
7 | – | – | Cc1ccc(F)c(O[C@H](c2nccs2)[C@H]2CCNC2)c1Cl [Example 5-23] | ≧7.0 | ≧7.0
8 | ≤ 0.1 | ≤ 0.1 | Cc1ccc(O[C@@H](c2ncco2)[C@H]2CCNC2)cc1 [6-48] | – | –
9 | – | – | Clc1ccc(O[C@@H](c2ccccc2)[C@H]2CCNC2)c(Cl)n1.O=C(O)C(F)(F)F [15-3] | ≧7.0 | ≧7.0
10 | – | – | O=C(O)C(F)(F)F.c1ccc(COc2ccccc2O[C@@H](c2ncco2)[C@H]2CCNC2)cc1 [6-36] | ≧5.0 | ≧7.0
11 | – | – | Cc1cc(Cl)c(OC(c2nccs2)C2CCNC2)c(Cl)c1.O=C(O)C(F)(F)F (mixture of isomers) [Example 5-12, 2-[((S)-(2,6-Dichloro-4-methylphenoxy)-pyrrolidin-3-yl-methyl]thiazole] | ≧7.0 | ≧5.0
12 | – | – | Cc1ncccc1O[C@@H](c1ccccc1)[C@H]1CCNC1.O=C(O)C(F)(F)F [15-9] | ≧5.0 | ≧5.0
13 | – | – | COc1cc(F)c(O[C@@H](c2nccs2)[C@H]2CCNC2)c(F)c1 [Example 5-28] | ≧7.0 | ≧5.0
14 | – | – | Fc1cncc([C@H](Oc2ccc3ccccc3c2)[C@H]2CCNC2)c1.O=C(O)C(F)(F)F [20-3] | ≧7.0 | ≧7.0
15 | ≤ 10 | ≤ 10 | COc1ccccc1O[C@H](c1cnccn1)[C@H]1CCNC1 [10-8] | – | –
16 | – | – | Cc1cc(Cl)ccc1O[C@@H](c1nccs1)[C@H]1CCNC1 [Example 5-22] | ≧7.0 | ≧7.0
17 | – | – | Fc1nc(OC(c2ccccc2)C2CCNC2)c(F)c(F)c1F (stereo not drawn) [14-42] | ≧5.0 | ≧5.0
18 | ≤ 10 | ≤ 10 | Fc1cc(Cl)c(OC(c2nccs2)C2CCNC2)c(Cl)c1 [Example 5-10, 2-[(R)-(2,6-Dichloro-4-fluorophenoxy)-((S)-pyrrolidin-3-yl-methyl]thiazole] | – | –
19 | ≤ 0.1 | ≤ 0.1 | Clc1cc(Cl)cc(O[C@H](c2ncco2)[C@H]2CCNC2)c1 [6-44] | – | –
20 | – | – | Fc1cnc(O[C@H](c2ccccc2)[C@@H]2CCNC2)c(F)c1.O=C(O)C(F)(F)F [14-16] | ≧7.0 | ≧7.0
21 | ≤ 10 | ≤ 0.1 | c1ccc(C(Oc2ccccn2)C2CCNC2)cc1 (stereo not drawn) [14-40] | – | –
22 | – | – | Fc1ccc(O[C@@H](c2ccccc2)[C@H]2CCNC2)cn1.O=C(O)C(F)(F)F [15-27] | ≧7.0 | ≧5.0

Row | Ki (SERT) [µM] | Ki (NET) [µM] | Compound | SERT pKi (SERT) | NET pKi (NET)
23 | – | – | CCCOc1ncccc1O[C@@H](c1ccccc1)[C@H]1CCNC1.O=C(O)C(F)(F)F [15-19] | ≧7.0 | ≧7.0
24 | – | – | Fc1ccc(F)c(O[C@@H](c2nccs2)[C@H]2CCNC2)c1Cl [Example 5-15] | ≧7.0 | ≧5.0
25 | – | – | Cc1cc(Cl)c(O[C@@H](c2ncco2)[C@H]2CCNC2)cc1F.O=C(O)C(F)(F)F [6-24] | ≧7.0 | ≧7.0
26 | ≤ 0.1 | ≤ 0.1 | Clc1cc(Cl)cc(OC(c2ccoc2)C2CCNC2)c1 [Example 9-1, (S)-3-[(R)-(3,5-Dichlorophenoxy)-furan-3-yl-methyl]pyrrolidione] | – | –
27 | – | – | Brc1cnc(O[C@@H](c2ccccc2)[C@H]2CCNC2)c(Br)c1.O=C(O)C(F)(F)F [14-13] | ≧7.0 | ≧7.0
28 | – | – | Fc1cnc(O[C@@H](c2ccccc2)[C@H]2CCNC2)c(F)c1.O=C(O)C(F)(F)F [14-17] | ≧5.0 | ≧7.0
29 | – | – | Fc1cc(O[C@@H](c2ccccc2)[C@H]2CCNC2)ccn1.O=C(O)C(F)(F)F [16-6] | ≧5.0 | ≧5.0
30 | – | – | FC(F)(F)c1cccnc1O[C@@H](c1ccccc1)[C@H]1CCNC1.O=C(O)C(F)(F)F [14-34] | ≧7.0 | ≧5.0
31 | – | – | Clc1ncccc1O[C@H](c1ccccc1)[C@@H]1CCNC1.O=C(O)C(F)(F)F [15-5] | ≧7.0 | ≧7.0
32 | – | – | Fc1ccc(O[C@H](c2nccs2)[C@H]2CCNC2)cc1Cl [Example 5-31] | ≧7.0 | ≧7.0
33 | – | – | CCOc1ncccc1O[C@@H](c1ccccc1)[C@H]1CCNC1.O=C(O)C(F)(F)F [15-20] | ≧7.0 | ≧7.0
34 | ≤ 0.1 | ≤ 10 | Clc1cncc(C(Oc2cc(Cl)c(Cl)cc2Cl)C2CCNC2)c1 [Example 2-1, 3-Chloro-5-[(R)-(S)-pyrrolidin-3-y1-(2,4,5-trichlorophenoxy)methyl]pyridine] | – | –
35 | ≤ 0.1 | ≤ 10 | Fc1cncc(C(Oc2c(F)ccc(F)c2Cl)C2CCNC2)c1 [Example 2-50, 3-[(S)-(2-Chloro-3,6-difluorophenoxy)-(S)-pyrrolidin-3-yl-methy1]-5-fluoropyridine] | – | –
36 | ≤ 0.1 | ≤ 10 | Fc1ccc(O[C@H](c2nccs2)[C@H]2CCNC2)c(Cl)c1 [Example 5-19, 2-[(S)-(2-Chloro-4-fluorophenoxy)-(S)-pyrrolidin-3-ylmethyl]thiazole] | – | –
37 | ≤ 0.1 | ≤ 0.1 | Fc1cncc([C@@H](Oc2cc(Cl)cc(Cl)c2)[C@H]2CCNC2)c1 [Example 2-66, 3-[(S)-(3,5-Dichlorophenoxy)-(S)-pyrrolidin-3-yl-methyl]-5-fluoropyridine] | – | –
38 | ≤ 10 | ≤ 10 | Fc1cc(F)c(O[C@@H](c2ccncc2)[C@H]2CCNC2)c(F)c1 [Example 3-1, 4-[(R)-(S)-Pyrrolidin-3-yl-(2,4,6-trifluorophenoxy)methyl]pyridine] | – | –
39 | – | – | Clc1ncccc1O[C@@H](c1ccccc1)[C@H]1CCNC1.O=C(O)C(F)(F)F [15-6] | ≧7.0 | ≧7.0
40 | – | – | O=C(O)C(F)(F)F.c1ccc([C@H](Oc2ccccn2)[C@H]2CCNC2)cc1 [14-41] | ≧7.0 | ≧7.0
41 | – | – | COc1cc(Cl)ccc1O[C@@H](c1ncco1)[C@H]1CCNC1 [6-39] | ≧7.0 | ≧7.0
42 | – | – | Clc1cccc(O[C@@H](c2ccccc2)[C@H]2CCNC2)n1.O=C(O)C(F)(F)F [14-9] | ≧7.0 | ≧7.0
43 | ≤ 0.1 | ≤ 0.1 | Fc1cncc(C(Oc2ccc(Cl)cc2Cc2ccccc2)C2CCNC2)c1 [Example 2-47, 3-[(R)-(2-Benzy1-4-chlorophenoxy)-(S)-pyrrolidin-3-yl-methy1]-5-fluoropyridine] | – | –
44 | – | – | Cc1ccc(F)c(O[C@H](c2nccs2)C2CCNC2)c1Cl (stereo partly drawn) [Example 5-17] | ≧7.0 | ≧7.0

Row | Compound | Ki (SERT) [µM] | Ki (NET) [µM] | SERT pKi (SERT) | NET pKi (NET)
45 | Fc1cc(F)c(OC(c2nccs2)C2CCNC2)c(F)c1 [Example 5-6, 2-[(R)-((S)-Pyrrolidin-3-yl-(2,4,6-trifluorophenoxy)methyl]thiazole] | ≤ 10 | ≤ 10 | – | –
